# Measured values taken from the supplement of paper PMC7840683.
# ± gives the standard deviation of the averaged measurements.
# Tested on: HepaRG
# Experiment: LDH release cytotoxicity, % of total lysis control; higher = more cytotoxic
# Conditions: 48 h
# Outline: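 Single-lot HepaRG cells in collagen I-coated 96-well plates were treated for 48 h in serum-free induction medium containing 0.5% DMSO with test chemicals in eight-point half-log series up to 100 µM. For total lysis, wells received 0.1% Triton X. LDH in 50 µL spent medium was assayed by resorufin fluorescence with CytoTox-ONE. Percent cytotoxicity was normalized to the on-plate vehicle and total lysis controls, with duplicates averaged.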
Structure (SMILES),LDH release cytotoxicity (0.03162 µM) [%],LDH release cytotoxicity (0.1 µM) [%],LDH release cytotoxicity (0.3162278 µM) [%],LDH release cytotoxicity (1 µM) [%],LDH release cytotoxicity (3.16228 µM) [%],LDH release cytotoxicity (10 µM) [%],LDH release cytotoxicity (31.6228 µM) [%],LDH release cytotoxicity (100 µM) [%],LDH release cytotoxicity (0.031623 µM) [%],LDH release cytotoxicity (0.316228 µM) [%],LDH release cytotoxicity (0.01581 µM) [%],LDH release cytotoxicity (0.05 µM) [%],LDH release cytotoxicity (0.1581139 µM) [%],LDH release cytotoxicity (0.5 µM) [%],LDH release cytotoxicity (1.5811388 µM) [%],LDH release cytotoxicity (5 µM) [%],LDH release cytotoxicity (15.8114 µM) [%],LDH release cytotoxicity (50 µM) [%]
O=C(CCCN1CCC(O)(c2ccc(Cl)cc2)CC1)c1ccc(F)cc1 [Haloperidol],-1.32 ± 0.62,-2.17 ± 0.32,-1.58 ± 0.27,-1.63 ± 0.15,-2.03 ± 0.68,-1.44 ± 0.67,4.34 ± 1.7,62.2 ± 7.4,,,,,,,,,,
ClC1=C(Cl)C2(Cl)C3C4OC4C(Cl)C3C1(Cl)C2(Cl)Cl (configuration not stated) [Heptachlor epoxide B],-4.87 ± 0.88,-4.16 ± 0.083,-4.44 ± 0.44,-3.99 ± 0.81,-3.88 ± 0.66,-3.4 ± 0.55,-3.14 ± 0.91,-0.787 ± 0.59,,,,,,,,,,
ClC1=C(Cl)C2(Cl)C3C(Cl)C=CC3C1(Cl)C2(Cl)Cl (configuration not stated) [Heptachlor],,-3.41 ± 1.6,,-2.89 ± 2.9,-2.85 ± 1.9,-1.78 ± 2.6,-1.45 ± 2.4,-0.326 ± 1.3,0.0329 ± 0.088,-2.78 ± 0.4,,,,,,,,
CCCCCCC(=O)O [Heptanoic acid],-1.47 ± 0.29,-1.55 ± 0.4,-1.65 ± 0.77,-1.97 ± 0.48,-1.6 ± 0.66,-1.54 ± 0.79,-1.75 ± 0.26,0.197 ± 0.072,,,,,,,,,,
ClC1=C(Cl)C(Cl)(Cl)C(Cl)=C1Cl [Hexachlorocyclopentadiene],,-0.0238 ± 0.36,,-1.14 ± 0.92,-0.83 ± 0.046,-0.988 ± 0.15,-0.0453 ± 0.82,0.368 ± 1.3,-1.11 ± 2.6,-1.49 ± 0.55,,,,,,,,
CCCCC(O)(Cn1cncn1)c1ccc(Cl)cc1Cl (configuration not stated) [Hexaconazole],-0.998 ± 0.92,-0.668 ± 1.4,0.00223 ± 0.062,-0.913 ± 0.57,-0.0659 ± 0.044,0.28 ± 0.96,-0.401 ± 0.24,10.1 ± 1.3,,,,,,,,,,
CCCCCCCCCCCCCCCC [Hexadecane],-0.113 ± 0.57,-0.43 ± 0.69,-1.34 ± 0.2,-1.31 ± 0.45,-0.091 ± 0.79,-0.203 ± 0.97,0.166 ± 0.85,-0.385 ± 0.52,,,,,,,,,,
O=C(NC(=O)c1c(F)cccc1F)Nc1cc(Cl)c(OC(F)(F)C(F)F)c(Cl)c1 [Hexaflumuron],-0.197 ± 0.083,-1 ± 0.078,-1.85 ± 0.34,-1.29 ± 1.2,-1.24 ± 0.28,-0.349 ± 0.16,-0.129 ± 0.31,4.86 ± 1.1,,,,,,,,,,
"O=C(OCCCCCCOC(=O)c1ccccc1)c1ccccc1 [Hexane-1,6-diyl dibenzoate]",-2.1 ± 1,-1.87 ± 0.28,-2.22 ± 0.23,-2.77 ± 1.1,-2.28 ± 0.66,-1.66 ± 0.29,-1.98 ± 0.81,-0.594 ± 0.66,,,,,,,,,,
N#CCCCCC#N [Hexanedinitrile],-0.442 ± 0.26,-0.226 ± 0.15,0.0594 ± 0.38,-1 ± 1,-0.445 ± 0.31,-0.461 ± 0.08,-0.494 ± 0.13,0.294 ± 0.37,,,,,,,,,,
"CC(C)CCCCCCOC(=O)CCCCC(=O)OCCCCCCC(C)C [Hexanedioic acid, diisononyl ester]",-1.22 ± 0.85,-0.123 ± 0.24,0.647 ± 0.098,-0.997 ± 1.1,0.19 ± 0.33,0.0398 ± 0.088,0.663 ± 0.4,0.377 ± 0.98,,,,,,,,,,
O=C(O)CCCCC(=O)O [Hexanedioic acid],-0.567 ± 0.22,-0.838 ± 0.079,-1.43 ± 1.4,-1.17 ± 0.34,-1.55 ± 0.028,-0.895 ± 0.82,-1.25 ± 0.29,0.446 ± 0.27,,,,,,,,,,
CCCCCC(=O)O [Hexanoic acid],-2.52 ± 0.086,-1.97 ± 0.41,-0.0407 ± 0.14,-1.44 ± 0.26,-1.32 ± 0.1,-1.49 ± 1.2,-0.358 ± 0.055,0.23 ± 0.78,,,,,,,,,,
CN(C)c1nc(=O)n(C2CCCCC2)c(=O)n1C [Hexazinone],-1.77 ± 0.1,-1.77 ± 0.46,0.416 ± 1.9,-2.14 ± 0.28,-0.406 ± 1.8,-0.642 ± 0.23,-1.37 ± 0.81,0.813 ± 0.03,,,,,,,,,,
CC1C(c2ccc(Cl)cc2)SC(=O)N1C(=O)NC1CCCCC1 (configuration not stated) [Hexythiazox],-0.985 ± 0.63,-2.1 ± 0.29,-1.93 ± 0.23,-1.79 ± 0.32,-1.86 ± 0.39,-2.05 ± 0.75,1.36 ± 1.8,6.86 ± 1.2,,,,,,,,,,
NS(=O)(=O)c1cc2c(cc1Cl)NCNS2(=O)=O [Hydrochlorothiazide],-0.499 ± 1.2,-1.26 ± 0.43,-1.458 ± 0.011,-1.51 ± 0.88,-1.15 ± 0.3,-0.679 ± 0.3,-1.51 ± 0.25,-0.146 ± 0.38,,,,,,,,,,
Oc1ccc(O)cc1 [Hydroquinone],0.852 ± 2.2,-0.606 ± 1,-1.09 ± 0.16,-0.745 ± 0.076,-0.483 ± 0.15,-0.0561 ± 0.24,-0.947 ± 0.53,-1.615 ± 0.013,,,,,,,,,,
CC(C)(O)C(=O)Nc1ccc([N+](=O)[O-])c(C(F)(F)F)c1 [Hydroxyflutamide],,,,,,,,,,,-1.79 ± 0.91,-0.825 ± 0.75,-0.846 ± 0.13,-1.16 ± 0.28,-0.0206 ± 0.13,0.0482 ± 0.13,-1.19 ± 0.34,2.46 ± 1.6
NC(=O)NO [Hydroxyurea],-2.94 ± 1.1,-1.59 ± 1.4,-2.4 ± 0.64,-2.62 ± 0.18,-1.83 ± 0.11,-1.79 ± 0.38,-0.278 ± 0.73,2.82 ± 1.5,,,,,,,,,,
